Test results reported in patent publication US20200399308A1, “COMPOUNDS AND METHODS FOR ELICITING ANTIMICROBIAL ACTIVITY” (Technion Research & Development Foundation Limited, priority 2018, published 2020).
Values after ≈ are worked out from the molar mass of the structure shown. Read-outs that look alike come from different tables or passages of the source. Non-standard residues stand in square brackets, D forms with d. Residues, ends and D or L forms follow the SMILES beside them. *: point of attachment. 12Ado = NCCCCCCCCCCCC(=O)O; Decanoyl = CCCCCCCCCC(=O)*; Octanoyl = CCCCCCCC(=O)*

Key:
[1] = Hydrophobicity (H) by HPLC elution from C18 column; type: physicochemical; settings: percentage of acetonitrile required for elution
[2] = tested on: Pseudomonas aeruginosa 11662; assay: Minimal inhibitory concentration; type: cell-based
Protocol: (§1) Minimal inhibitory concentrations (MICs) were determined as previously described. […] MICs were determined by microdilution susceptibility testing in 96-well plates (by Nunc) using inocula of 10^5 bacteria per ml. Cell populations were evaluated by optical density measurements at 620 nm and were calibrated against a set of standards. Hundred (100) μl of a bacterial suspension were added to 100 μl of culture medium (control) or to 100 μl of culture medium containing various tested compound concentrations in 2-fold serial dilutions. Inhibition of proliferation was determined by optical density measurements at 620 nm after an incubation period of 24 hours at 37° C. Data were obtained from ≥2 independent experiments performed in duplicate.
(§2) The mean value (±SD) is shown for Compound C; Minimum inhibitory concentration (MIC) of compounds required to inhibit bacterial proliferation after overnight incubation.

Escherichia coli 25922 [3] = assay: Minimal inhibitory concentration; type: cell-based
Protocol: as §1, §2

[4] = tested on: Salmonella enterica serovar Choleraesuis 7308; assay: Minimal inhibitory concentration; type: cell-based
Protocol: as §1, §2

[5] = tested on: Klebsiella pneumoniae 1287; assay: Minimal inhibitory concentration; type: cell-based
Protocol: as §1, §2

[6] = tested on: Salmonella enterica serovar Typhimurium 14028; assay: Minimal inhibitory concentration; type: cell-based
Protocol: as §1, §2

[7] = tested on: Klebsiella pneumoniae C2 (carbapenemase 2-producing strain); assay: Minimal inhibitory concentration; type: cell-based
Protocol: as §1, §2

Escherichia coli ML35p = assay: Minimal inhibitory concentration; type: cell-based; settings: Ec ML35p, overnight incubation
Protocol: as §1, §2

[8] = tested on: Pseudomonas aeruginosa 11816; assay: Minimal inhibitory concentration; type: cell-based
Protocol: as §1, §2

[9] = Charge at physiological pH (Q); type: physicochemical
[10] = tested on: Escherichia coli mutant ML-35p; assay: Outer and cytoplasmic membrane permeabilization (nitrocefin / ONPG); type: cell-based; settings: E. coli ML-35p, buffer, 16 minutes after addition
Protocol: Membrane permeabilization was assessed using E. coli ML-35p as described elsewhere, to monitor the ability of the compounds to perturb the outer and/or cytoplasmic membranes. Reported data were obtained from ≥2 independent experiments performed in duplicate.
Additional support for this view was obtained by comparing the compounds' susceptibility to damage gram-negative bacteria membranes, using the E. coli mutant ML-35p. Widely described in the literature, the mutant was considered herein as representative of all gram-negative bacteria, rather than a specific species. This mutant is constitutive for cytoplasmic β-galactosidase, lacks lactose permease, and expresses a plasmid-encoded periplasmic β-lactamase. Two chromogenic reporter molecules (nitrocefin and 2-nitrophenyl β-d-galactopyranoside, respectively, absorbing at 486 and 420 nm) were used to monitor permeabilization of the outer membrane and/or cytoplasmic membrane in a single assay.

Hemolytic assay = type: cell-based; settings: fresh mouse red blood cells (1%); hemolysis of 50% of mouse red blood cells (1%) after 3 hours in PBS; read-out: LC50, fifty percent lethal concentration (hemolysis)
Protocol: (§3) Organization of the compounds in aqueous solution was assessed by light-scattering measurements in phosphate buffered saline (PBS; 10 mM Na2HPO4, 150 mM NaCl, pH=7.0). Hemolytic assays were performed as described elsewhere, using fresh mouse red blood cells.
as §2

[11] = Critical aggregation concentration by light scattering in PBS; type: physicochemical; settings: light scattering in phosphate-buffered saline
Protocol: as §3, §2

OM = assay: Outer membrane damage by less hydrophobic analogs; type: cell-based
E. coli 25922 [12] = assay: Time-kill kinetics in broth versus plasma; type: cell-based, Escherichia coli
Protocol: (§4) Time-kill kinetics data were determined using 100 μl of bacterial suspension (10^6 CFU/ml), which was added to […] LB containing none of or specified concentrations of the tested compound, antibiotic, and combinations thereof. After the specified exposure time points (37° C. under shaking), aliquots were formed, subjected to serial 10-fold dilutions in saline (0.85% NaCl), and plated for bacterial enumeration after additional 24 hours incubation at 37° C. Time-kill experiments in human and mouse plasma were performed as described elsewhere. The effects of drug delay were assessed in LB, except that bacteria were pre-incubated with the tested compound or antibiotic for the specified time points, centrifuged, and resuspended in fresh LB-containing antibiotic or the tested compound, respectively, and incubated for 3 hours before CFU enumeration.

[13] = Subcutaneous 25 mg/kg, published data, cited from earlier work
E. coli strain 14182 = assay: Checkerboard antibiotic MIC with Compound B; type: cell-based, Escherichia coli
Protocol: as §1
(§5) Shown in parentheses are calculated sensitization factor, defined as antibiotic's MICs ratio (in absence vs. presence of Compound B) at specified Compound B concentration.

E. coli strain 16327 = assay: Checkerboard antibiotic MIC with Compound B; type: cell-based, Escherichia coli
Protocol: as §1, §5

E. coli strain 14384 = assay: Checkerboard antibiotic MIC with Compound B; type: cell-based, Escherichia coli
Protocol: as §1, §5

E. coli strain 35218 = assay: Checkerboard antibiotic MIC with Compound B; type: cell-based, Escherichia coli
Protocol: as §1, §5

E. coli strain 25922 = assay: Checkerboard antibiotic MIC with Compound B; type: cell-based, Escherichia coli
Protocol: as §1, §5

Escherichia coli 25922 [14] = assay: Mouse peritonitis-sepsis model; type: in vivo; settings: neutropenic ICR mice; erythromycin 100 mg/kg s.c. + Compound B […] s.c.
Protocol: A mouse peritonitis-sepsis model was created as described elsewhere. Infection was obtained after intraperitoneal injection of bacteria from a logarithmic-phase culture. Infected mice were treated subcutaneously. The doses were selected to allow comparison with the reference compound and to remain below the maximum tolerated dose after double-dose administration. […] Briefly, mouse peritonitis sepsis model for in vivo studies were performed using male ICR mice ([…]) obtained from Envigo Laboratories (Rehovot, Israel). […] Infection was obtained by intraperitoneal injection of a logarithmic phase culture of E. coli 25922 (1.3±0.2×10^6 CFU permouse in 0.3 ml PBS). […] Infection control mice were injected with the PBS vehicle. Mouse survival was monitored for up to 7 days after treatment. Statistical analyses were performed by paired Student's t test, at α=0.05.

E. coli 25922 [15] = assay: Simultaneous versus delayed drug exposure assay in LB; type: cell-based, Escherichia coli; settings: Compound B 10 μM with 0.06 μg/ml rifampin or 4 μg/ml erythromycin, LB
Protocol: as §4

[16] = 20 mg/kg body weight; reported; cited from earlier work
E. coli 25922 [17] = assay: Ethidium bromide permeability assay; type: cell-based, Escherichia coli; settings: t=20 minutes
Protocol: Ethidium bromide permeability assays were performed as follows: Overnight cultures were adjusted to 1.0 OD (600 nm) and centrifuged for 5 minutes at 15,000 g. Pellets were washed twice with PBS containing 0.5% glucose, resuspended, and incubated for 10 minutes at 37° C. with shaking. A […] suspension was mixed in a black 96-well plate with […] of the tested compound and ethidiumbromide (1 μg/ml), and the fluorescence was recorded (excitation 535 nm, emission 590 nm) for up to 30 minutes at 37° C. with shaking. Data were obtained from at least 2 independent experiments.
(FU denotes fluorescence units; triangles denote Compound B, circles denote PMB, squares denote untreated control; error bars=SD).

Escherichia coli 25922 [18] = assay: Mouse thigh infection model; type: in vivo; settings: normal mice inoculated intramuscularly, treated s.c. 1 hour thereafter, CFU 24 hours post-treatment
Protocol: Mouse thigh infection model was afforded from normal ICR mice, which were inoculated intramuscularly and treated subcutaneously 1 hour thereafter with a tested compound or polymyxin B (PMB; Sigma-Aldrich) as described elsewhere. P values were calculated using a 1-tailed t test (assuming unequal variance). A P value of <0.05 is considered statistically significant.

Compound: CCCCCCCCCC(=O)NC(CCCCN)C(=O)NC(CCCCN)C(=O)NCCCCCCCCCCCC(=O)NC(CCCCN)C(N)=O (stereo not drawn) [Compound A] (Decanoyl-KK[12Ado]K-NH2; configuration not given here)
- H, hydrophobicity [1]: 44%
- MIC [2]; 11662: > 50 µM
- MIC (Escherichia coli 25922 [3]; 25922): > 50 µM
- MIC ([4]; CHOLERAESUIS / SC7308): > 50 µM
- MIC [5]; 1287: > 50 µM
- MIC [6]: > 50 µM
- MIC [7]: > 50 µM
- MIC (Escherichia coli ML35p): > 50 µM
- MIC [8]; 11816: > 50 µM
- Q, charge at physiological pH [9]: 3
- cytoplasmic membrane permeabilization [10]: similarly unable to permeabilize the cytoplasmic membrane at least up to approximately 10 μM
- outer membrane permeabilization [10]: similarly potent in inducing outer membrane permeabilization
- CC50 at 3 h (Hemolytic assay): > 100 µM
- CAC, critical aggregation concentration [11]: >100 µM

Compound: CCCCCCCC(=O)N[C@@H](CCCCN)C(=O)N[C@@H](CCCCN)C(=O)NCCCCCCCCCCCC(=O)N[C@@H](CCCCN)C(N)=O [Compound C8KKC12K] (Octanoyl-KK[12Ado]K-NH2)
- damage to the OM (OM): able to damage the OM

Compound: CCCCCCCCCC(=O)NC(CCCNC(=N)N)C(=O)NC(CCCNC(=N)N)C(=O)NCCCCCCCCCCCC(=O)NC(CCCNC(=N)N)C(N)=O (stereo not drawn) [Compound C] (Decanoyl-RR[12Ado]R-NH2; configuration not given here)
- H, hydrophobicity [1]: 46%
- MIC ([2]; Pa 11662, overnight incubation, read-out: MIC): 50 µM (≈ 41.9 µg/mL)
- MIC (Escherichia coli 25922 [3]; Ec 25922, overnight incubation, read-out: MIC): 25 µM (≈ 20.9 µg/mL)
- MIC ([4]; CHOLERAESUIS / SC7308, SC 7308, overnight incubation, read-out: MIC): > 50 µM
- MIC ([5]; Kp 1287, overnight incubation, read-out: MIC): 50 µM (≈ 41.9 µg/mL)
- MIC ([6]; ST 14028, overnight incubation, read-out: MIC): > 50 µM
- MIC ([7]; Kp C2, overnight incubation, read-out: MIC): > 50 µM
- MIC (Escherichia coli ML35p): 12.5 µM (≈ 10.5 µg/mL)
- MIC ([8]; Pa 11816, overnight incubation, read-out: MIC): 50 µM (≈ 41.9 µg/mL)
- Q, charge at physiological pH [9]: 3
- cytoplasmic membrane permeabilization [10]: somewhat higher tendency for cytoplasmic membrane damaging
- CC50 at 3 h (Hemolytic assay): 80 ± 1 µM
- CAC, critical aggregation concentration [11]: >100 µM

Compound: CC[C@H]1OC(=O)[C@H](C)[C@@H](O[C@H]2C[C@@](C)(OC)[C@@H](O)[C@H](C)O2)[C@H](C)[C@@H](O[C@@H]2O[C@H](C)C[C@H](N(C)C)[C@H]2O)[C@](C)(O)C[C@@H](C)C(=O)[C@H](C)[C@@H](O)[C@]1(C)O [Erythromycin, erythromycin]
- effect on CFU count (E. coli 25922 [12]; LB broth, 24-hours end point, erythromycin 3 μg/ml combined with Compound B 0.6 μM): did not alter the CFU count
- time to accomplish the CFU reduction (more than 3 log units) (E. coli 25922 [12]; human plasma, antibiotic with Compound B 0.6 μM): ≤ 3 hours
- combined action with Compound B (E. coli 25922 [12]; mouse plasma, 24 hours end point, Compound B 10 μM with rifampin 1 μg/ml or erythromycin 3 μg/ml): expressed synergism of action
- Plasma concentration ([13]; 0.5 h): 3700 ng/mL
- Plasma concentration ([13]; 1 h): 2300 ng/mL
- Plasma concentration ([13]; 2 h): 400 ng/mL
- Antibiotic MIC in the presence of Compound B (E. coli strain 14182; Compound B 2.5 μM): 16 µg/mL
- Antibiotic MIC in the presence of Compound B (E. coli strain 14182; Compound B 5 μM): 4 µg/mL
- Antibiotic MIC in the presence of Compound B (E. coli strain 14182; Compound B 10 μM): 1 µg/mL
- Antibiotic MIC in the presence of Compound B (E. coli strain 16327; Compound B 0 μM): 512 µg/mL
- Antibiotic MIC in the presence of Compound B (E. coli strain 16327; Compound B 2.5 μM): 4 µg/mL
- Antibiotic MIC in the presence of Compound B (E. coli strain 16327; Compound B 5 μM): 1 µg/mL
- Antibiotic MIC in the presence of Compound B (E. coli strain 16327; Compound B 10 μM): 0.5 µg/mL
- Antibiotic MIC in the presence of Compound B (E. coli strain 16327; Compound B […]): 64 µg/mL
- Antibiotic MIC in the presence of Compound B (E. coli strain 14384; Compound B 0 μM): >512 µg/mL
- Antibiotic MIC in the presence of Compound B (E. coli strain 14384; Compound B 2.5 μM): 2 µg/mL
- Antibiotic MIC in the presence of Compound B (E. coli strain 14384; Compound B 5 μM): 1 µg/mL
- Antibiotic MIC in the presence of Compound B (E. coli strain 14384; Compound B 10 μM): 0.5 µg/mL
- Antibiotic MIC in the presence of Compound B (E. coli strain 14384; Compound B […]): 64 µg/mL
- Antibiotic MIC in the presence of Compound B (E. coli strain 35218; Compound B 2.5 μM): 4 µg/mL
- Antibiotic MIC in the presence of Compound B (E. coli strain 35218; Compound B 5 μM): 1 µg/mL
- Antibiotic MIC in the presence of Compound B (E. coli strain 35218; Compound B 10 μM): 0.5 µg/mL
- Antibiotic MIC in the presence of Compound B (E. coli strain 35218; Compound B […]): 64 µg/mL
- Antibiotic MIC in the presence of Compound B (E. coli strain 25922; Compound B 2.5 μM): 2 µg/mL
- Antibiotic MIC in the presence of Compound B (E. coli strain 25922; Compound B 5 μM): 0.5 to 1 µg/mL
- Antibiotic MIC in the presence of Compound B (E. coli strain 25922; Compound B 10 μM): 0.25 µg/mL
- Antibiotic MIC in the presence of Compound B (E. coli strain 25922; Compound B […]): 8 µg/mL
- efficacy of combination vs individual administrations (Escherichia coli 25922 [14]): clearly more effective in combination
- effect of delayed exposure on sensitization by Compound B (E. coli 25922 [15]): delay by up to 60 (but not 120) minutes revealed maintenance of the sensitization activity

Compound: polymyxin B [PMB]
- mortality [16]: zero
- CM permeability to ethidium bromide (E. coli 25922 [17]): increased significantly more than Compound B
- reduction of the number of inoculated E. coli (Escherichia coli 25922 [18]): 64%
